We go through 5 compounds from patent US10418127B2, “Method of formulating a skin-lightening composition” (The Procter & Gamble Company, priority 2012, dated 2019).

Assay [1] has as its system Chinese females, 25-55 years old with hyperpigmented spots. Put plainly: 9-week split-face, vehicle-controlled clinical skin tone benefit study. The class given is in vivo, human. Particulars: 0.05% in SC-99 vehicle, vs vehicle. The text has this: This Example provides evidence of the advantages of using composite signatures and illustrates clinical affirmation of the C-map model for predicting efficacy of skin-lightening agents. This Example supports embodiments related to composite signatures (as described at the end of Example 3). An illustrative “Skin Tone” Signature developed from a genomics study using a composite skin-lightening benchmark agent signature is derived from Niacinamide, Hexamidine, Sepiwhite, and NAG. The signature is used to query C-map and generate a list of potential skin-lightening agents. A top hit, Chlorhexidine Diactate (CD) is entered into clinical testing for confirmation of efficacy. The control for clinical efficacy is a 5% Niacinamide +1% Sepiwhite formulation in the control vehicle.
Primary endpoints are changes in color spot area fraction (image analysis) and melanin spot area fraction (NC2) from baseline. Secondary endpoints are changes from baseline in L*a*b (color image analysis), mean melanin gray scale (NC2), and melanin evenness (NC2). Texture area fraction and pore area fraction are also evaluated to explore impact on other aspects relating to overall skin tone. […] Statistically significant superiority to the high efficacy benchmark skin active agent to vehicle performance is the clinical success criteria.
Study Design: The experimental protocol included a 9-week (1-week preconditioning & 8-week treatment), randomized, double-blind, round robin, vehicle-controlled, split-face tone benefit study. The subject population included 330 Chinese females, 25-55 years old with hyperpigmented spots. 318 subjects completed the entire study. […] Olay Complete SPF 15 UV Moisturizing Lotion is concomitantly used during pre-conditioning and treatment. 0.5 g each test product per half-face (forehead to jaw line; ˜4 mg/cm^2) is dosed 2× a day (morning/evening). Color SAF and treatment area, Melanin SAF, gray scale, evenness by NC2, and additional measurement of Fine Lines and Wrinkle and Texture are by REAL 3.01A. Data collection points include baseline, and ends of weeks 4, 6 and 8. The tested hypothesis is that there is no difference in clinical endpoint versus the benchmark composition treatment. Study site is Kuntai Clinical Center, Beijing, China and study time frame is February 2010 (pre-conditioning) to April 2010.

In assay [2] the test system is tert-Keratinocyte (tKC) cell line. Put plainly: C-map query with the composite skin tone benchmark signature. The class given is cell-based, human. Particulars: composite signature of Niacinamide, Hexamidine, Sepiwhite and NAG. How it is done:
Individual experiments (referred to as batches) generally comprise 30 to 96 samples analyzed using Affymetrix GeneChip® technology platforms, containing 6 replicates of the vehicle control (e.g., DSMO), 2 replicate samples of a positive control that gives a strong reproducible effect in the cell type used, and samples of the test material/perturbagen. Replication of the test material is done in separate batches due to batch effects. In vitro testing was performed in 6-well plates to provide sufficient RNA for GeneChip® analysis (2-4 μg total RNA yield/well).
Human telomerized keratinocytes (tKC) were obtained from the University of Texas, Southwestern Medical Center, Dallas, Tex. tKC cells were grown in EpiLife® media with 1× Human Keratinocyte Growth Supplement (Invitrogen, Carlsbad, Calif.) on collagen I coated cell culture flasks and plates (Becton Dickinson, Franklin Lakes, N.J.). Keratinocytes were seeded into 6-well plates at 20,000 cells/cm^2 24 hours before chemical exposure. Human skin fibroblasts (BJ cell line from ATCC, Manassas, Va.) were grown in Eagle's Minimal Essential Medium (ATCC) supplemented with 10% fetal bovine serum (HyClone, Logan, Utah) in normal cell culture flasks and plates (Corning, Lowell, Mass.). BJ fibroblasts were seeded into 6-well plates at 12,000 cells/cm^2 24 hours before chemical exposure. […]

Assay [3] has as its system ultraviolet-induced skin pigmentation. Particulars: Shimizu K. et al., Planta Med 2002; cited from earlier work.
The next assay concerns melanocyte. Particulars: in vitro; cited from earlier work.
Another assay concerns the target T1, tyrosinase (Homo sapiens, UniProt P14679).
T1 sequence (P14679 19-529): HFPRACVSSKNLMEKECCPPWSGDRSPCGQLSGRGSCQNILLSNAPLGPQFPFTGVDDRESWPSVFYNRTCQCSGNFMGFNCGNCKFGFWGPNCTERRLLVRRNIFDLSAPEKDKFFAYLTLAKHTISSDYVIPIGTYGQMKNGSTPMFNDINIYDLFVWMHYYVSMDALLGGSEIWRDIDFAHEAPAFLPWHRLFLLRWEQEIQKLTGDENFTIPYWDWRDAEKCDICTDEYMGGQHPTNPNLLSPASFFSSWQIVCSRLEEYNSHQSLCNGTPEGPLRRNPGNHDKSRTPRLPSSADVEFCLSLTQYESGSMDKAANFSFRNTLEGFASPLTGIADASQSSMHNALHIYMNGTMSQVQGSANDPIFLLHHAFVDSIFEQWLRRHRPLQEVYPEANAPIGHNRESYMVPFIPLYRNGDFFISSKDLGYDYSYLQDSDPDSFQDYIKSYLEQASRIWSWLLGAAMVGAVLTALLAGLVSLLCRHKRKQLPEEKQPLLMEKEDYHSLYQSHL
Particulars: in vitro; cited from earlier work.

For assay [4], the system named is melanosome transfer from melanocytes to keratinocytes. To be noted: in vitro; cited from earlier work.

Consider `CC(=O)O.CC(=O)O.NC(=N\CCCCCC/N=C(N)/N=C(\N)Nc1ccc(Cl)cc1)/N=C(\N)Nc1ccc(Cl)cc1` [CD, Chlorhexidine Diacetate], for which the “spot area fraction color test” value in assay [1] (2x a day, week 8) was “significantly fewer spots when compared to vehicle”. In addition, in assay [1] (week 8), the Basal skin tone entry was “demonstrated superiority”, the Pore area fraction result is “superior efficacy” and the Texture area fraction entry is “superior efficacy”. In addition, in assay [1] (weeks 6 and 8), the “NC2 Melanin evenness test” value was “superiority to the vehicle” and the “spot area fraction NC2 test” value is on record as “significantly reduced fraction when compared to the vehicle”. For the same compound, the “connectivity to the tone composite benchmark signature query” value in assay [2] is on record as “top connectivity hit”.

As for `COc1cc2oc(-c3ccc(O)cc3O)c(CC=C(C)C)c(=O)c2c(O)c1/C=C/C(C)C` [artocarpin], the skin-lightening efficacy entry in assay [3] is “some efficacy for skin-lightening”.

Consider `C=CCCCCCCCCC(=O)N[C@@H](Cc1ccccc1)C(=O)O` [N-undecylenoyl-L-phenylalanine], for which the “binding of alpha-MSH to the melanocyte” value in the assay with melanocyte is on record as “inhibit biding of alpha-MSH to the melanocyte”.

In the case of `N[C@H]1C(O)O[C@H](CO)[C@@H](O)[C@@H]1O` (some centres unmarked) [glucosamine], the production of melanin entry on tyrosinase is “reduces production of melanin by inhibiting activation of tyrosinase”.

With `NC(=O)c1cccnc1` [niacinamide], the melanosome transfer entry in assay [4] is given as “inhibits melanosome transfer from melanocytes to keratinocytes”.
